Results taken from patent US6660496B1 (priority 1993, dated 2003).
“Also recorded” adds a separate entry of the source.

Experiments:
kappa3 opioid receptor = assay: Effect of antisense treatment on kappa3 analgesic activity (tailflick assay); assay type: in vivo; details: mice, 5 μg oligodeoxynucleotide intracerebroventricular on days 1, 3 and 5, quantal tailflick 15 min after drug; for Effect on analgesic response to NalBzoH: NalBzoH 15 μg on day 6; for Effect on analgesic response to morphine: morphine 1 μg on day 6
kappa3 receptors = details: cited from earlier work

## sense strand: complementary sense strand to the antisense oligodeoxynucleotide (5′-CCCGACACGTCTTCGC-GTCT-3′) (SEQ ID NO:4) (sense CCCGACACGTCTTCGCGTCT; DNA, backbone and methylation of C not given here)
kappa3 opioid receptor
  Effect on analgesic response to NalBzoH: lack of activity
kappa3 opioid receptor; listed as sense
  Effect on analgesic response to NalBzoH: unaffected

## Oc1ccc2c3c1O[C@H]1c4[nH]c5c(c4C[C@@]4(O)[C@@H](C2)N(CC2CC2)CC[C@]314)C[C@@]1(O)[C@H]2Cc3ccc(O)c4c3[C@@]1(CCN2CC1CC1)[C@H]5O4 [nor-binaltorphimine]
kappa3 receptors
  Binding to kappa3 receptors: do not bind U50,488H or nor-binaltorphimine very well

## mismatched antisense: mismatched antisense in which two base pairs had been switched (5′-GGGTCGTGCAGAGACGCAGA-3′) (SEQ ID NO:5) (DNA, backbone and methylation of C not given here)
kappa3 opioid receptor
  Effect on analgesic response to NalBzoH: unaffected
kappa3 opioid receptor; listed as mismatched antisense probe
  Effect on analgesic response to NalBzoH: lack of activity

## antisense: anti-sense to the kappa3 clone (5′-GGGCTGTGCAGAAGCGCAGA-3′)(SEQ ID NO:3) (DNA, backbone and methylation of C not given here)
kappa3 opioid receptor
  Effect on analgesic response to NalBzoH: markedly lowered; also recorded: markedly reduced
  Effect on analgesic response to morphine: without interfering
kappa3 opioid receptor; listed as anti-sense
  Effect on analgesic response to morphine: unaffected
